Read-outs that look alike come from different tables or passages of the source.

In one data set the test system is HCMV (Strain AD169). Briefly: Plaque reduction assay, HCMV AD169 in human foreskin fibroblast cells. The format is cell-based, Human Cytomegalovirus (HCMV). The note with it: for EC50: Human betaherpesvirus 5, AD169, Fibroblast. For orientation: Plaque reduction counts the foci of infection that form in a cell layer.
Data set [1] relates to Influenza virus B/FL/4/2006. Briefly: microbe, parasite or virus in culture. The data set is classed as cell-based. The note with it: unidentified influenza virus, MDCK, read-out: B/FL/4/2006 (EC50, μM).
In the next data set the test system is BKV (Gardner strain). Briefly: BKV EC50 in Vero cells (qPCR of supernatant BKV DNA). Conditions: Betapolyomavirus hominis. The format is cell-based, BK virus (BKV). The procedure:
Costar 96-well tissue culture plates were seeded with 10,000 Vero cells/well in DMEM containing 2% Hyclone Standard Fetal Bovine Serum (FBS, Cat 5H30088.03) and 1% Hyclone Penicillin and Streptomycin. Outer wells were not used to minimize the edge-effect produced by extended incubations. Cells were inoculated with 115 BKV DNA copies/cell (ATCC, Gardner strain). Serial dilutions of test compounds were added to the cells and plates were incubated for 10 days at 37° C. in 5% CO2. After the 10-day incubation, 50 μL supernatant was mixed with 50 μL 2× lysis buffer that provided a final concentration 0.5 mg/mL protease K, 50 mM KCl, 10 mM Tris-Cl pH 8.0, 2.5 mM MgCl2, 0.45% IGEPAL, and 0.45% Tween-20 dissolved in DEPC-treated water. Each plate was incubated for 2 hours at 55° C. Supernatant BKV DNA was measured by quantitative polymerase chain reaction (qPCR) using forward and reverse BKV PCR primers, and a FAM-labeled probe. Absolute quantitation of viral copy number was performed using a standard curve with dilutions of a BKV DNA amplicon containing sequences homologous to the amplified fragment. The following qPCR amplification conditions were used: 1 cycle at 95° C. for 10 minutes, followed by 45 cycles of 95° C. for 15 seconds and 60° C. for 60 seconds. The qPCR reactions were performed using an Applied Biosystems 7500 real Time PCR System. Gen 5 software (BioTek Instruments, Inc.) was used to calculate the concentration which inhibited the viral DNA levels of BKV-infected Vero cells by 50% (EC50).
Background: Quantitative PCR measures a nucleic acid by following its amplification.

Data set [2] is described as follows: Cytotoxicity (CC50) in MT4 cells. The note with it: human. The data set is classed as cell-based. The procedure: Costar 96-well tissue culture plates were seeded with 5,000 MT4 cells (NIH AIDS Reagents Program)/well in RPMI (Lonza, Cat 12-11F) containing 10% Hyclone Standard Fetal Bovine Serum (FBS, Cat 5H30088.03), 1% Hyclone Penicillin and Streptomycin (Cat SV30010), and 2 mM Lonza L-Glutamine (Cat 17-605E). Outer wells were not used to minimize the edge-effect produced by extended incubations. Serial dilutions of test compounds were added to the cells and plates were incubated for 6 days at 37° C. in 5% CO2. After 6 days of incubation 40 μL of Cell Titer 96® Aqueous MTS Reagent (Promega, G111) was added as directed by manufacturer to the 200 μL media in each well and incubated at 37° C. until the untreated-cell controls developed an 490 nm absorbance between 1.1 and 1.8. The final absorbance readings were read using a BioTek Synergy 2, and Gen 5 software (BioTek Instruments, Inc.) was used to calculate the concentration which inhibited MT4 cells by 50% (CC50).

A further data set deals with MCMV. In words: MCMV antiviral activity in MEF cells. The data set is classed as cell-based. Conditions: Virus MCMV, cell line MEF.
Data set [3] is described as follows: Cytotoxicity in BCBL-1 cells. The data set is classed as cell-based. Conditions: human, cell line BCBL-1 (HHV-8 row). The procedure: (§1) Cell viability in all assays with lymphocytes was assessed with the CellTiter-Glo Luminescent Cell Viability Assay (Promega). Briefly, assay plates were incubated at ambient temperature for 30 min then 50 µl of CellTiter-Glo reagent was added to each well and the plates were mixed for 2 min on an orbital shaker to lyse the cells. Plates were then incubated for an additional 10 min at ambient temperature and the luminescence was quantified on a luminometer. Standard methods were used to calculate drug concentrations that inhibited the proliferation of Akata, HSB-2, BCLB-1, or Molt-3 cells by 50% (CC50).

The test system of another data set is HCV. In words: HCV antiviral activity in Huh cells. Conditions: Hepatitis C virus, cell line Huh. The format is cell-based.
The nature of data set [4]: Cytotoxicity in MOLT-3 cells. The format is cell-based. The note with it: human, cell line MOLT-3 (HHV-6B row). The method, then:
as §1

The term EC90 denotes the concentration at which the effect reaches the 90% level. By CC50 is commonly meant the concentration giving 50% cytotoxicity. For `CC(C)CCCCCCCCCCCCCCOCCCOP(=O)(O)COC(CO)Cn1ccc(=O)[nH]c1=O` (stereo not drawn) [Compound 12], the EC50 in the data set on HCMV (Strain AD169) (Strain AD169, human foreskin fibroblast cells, read-out: HCMV EC50) was 52 nM; in the data set on HCMV (Strain AD169) (Virus AD169, human foreskin fibroblast cells (Table 3), read-out: EC50) it was roughly 52 nM; in data set [1], greater than 4 µM; in the data set with BKV (Gardner strain) (BKV in Vero cells (Table 7), read-out: BKV EC50), 1550 nM; in the data set on BKV (Gardner strain) (Virus BKV, cell line Vero (Table 8), read-out: EC50) it was 2100 nM; with MCMV, 1600 nM. For the same compound, the EC50 with HCV turned out to be 570 nM. The 90% effect level in the data set on HCMV (Strain AD169) (Human betaherpesvirus 5, Virus AD169, human foreskin fibroblast cells) (EC90) was put at 150 nM. The CC50 at 6 days in data set [2] (MT4 cells (Table 7), read-out: MT4 CC50) came to 25600 nM; in data set [2] (Mean XC50 (Table 9), read-out: MT4 cytotoxicity CC50) it was 24700 nM. The CC50 in data set [3] was greater than 10000 nM; in data set [4], 8400 nM.

These data come from patent publication US20170029451A1, “BRANCHED CHAIN ACYCLIC NUCLEOSIDE PHOSPHONATE ESTERS AND METHODS OF SYNTHESIS AND USES THEREOF” (CHIMERIX, INC., priority 2013, published 2017).
